In ChEMBL document CHEMBL3639365, “Substituted aniline derivatives” (2014):

How the values were obtained:
1,3-beta-glucan synthase [1] = biological target: 1,3-beta-glucan synthase (Candida, UniProt O13428); assay: (§1) Glucan Synthase Assay: The glucan synthase assay follows the incorporation of tritiated UDP-glucose into acid insoluble β-glucan as catalysed by the glucan synthase activity present in membrane preparations from Candida albicans and Aspergillus fumigatus. UDP-[3H]-glucose (ca 0.01 μCi) is added to 100 μl assay buffer (50 mM Tris-Cl, pH8.0, 8% glycerol, 1 mM EDTA, 1.5 mM KF, 1 mM DTT, 20 μM GTPγS, 600 μM UDP-glucose) and the reaction initiated by the addition of 2.5 μl of enzyme preparation. After incubation at 30°C. for 120 minutes, 10 μl of 30 mg/ml BSA is added with mixing and the reaction is terminated with 110 μl ice-cold 20% TCA. The precipitate is collected on a GF/B filter plate and washed three times with 200 μl water. Once dry, 200 μl of Microscint20 is added to each well and the plate is read on a Top-count scintillation counter.
1,3-beta-glucan synthase [2] = biological target: 1,3-beta-glucan synthase (Aspergillus, UniProt Q4WLT4); assay: as §1
1,3-beta-glucan synthase (Aspergillus, UniProt Q4WLT4), sequence (Q4WLT4 whole entry): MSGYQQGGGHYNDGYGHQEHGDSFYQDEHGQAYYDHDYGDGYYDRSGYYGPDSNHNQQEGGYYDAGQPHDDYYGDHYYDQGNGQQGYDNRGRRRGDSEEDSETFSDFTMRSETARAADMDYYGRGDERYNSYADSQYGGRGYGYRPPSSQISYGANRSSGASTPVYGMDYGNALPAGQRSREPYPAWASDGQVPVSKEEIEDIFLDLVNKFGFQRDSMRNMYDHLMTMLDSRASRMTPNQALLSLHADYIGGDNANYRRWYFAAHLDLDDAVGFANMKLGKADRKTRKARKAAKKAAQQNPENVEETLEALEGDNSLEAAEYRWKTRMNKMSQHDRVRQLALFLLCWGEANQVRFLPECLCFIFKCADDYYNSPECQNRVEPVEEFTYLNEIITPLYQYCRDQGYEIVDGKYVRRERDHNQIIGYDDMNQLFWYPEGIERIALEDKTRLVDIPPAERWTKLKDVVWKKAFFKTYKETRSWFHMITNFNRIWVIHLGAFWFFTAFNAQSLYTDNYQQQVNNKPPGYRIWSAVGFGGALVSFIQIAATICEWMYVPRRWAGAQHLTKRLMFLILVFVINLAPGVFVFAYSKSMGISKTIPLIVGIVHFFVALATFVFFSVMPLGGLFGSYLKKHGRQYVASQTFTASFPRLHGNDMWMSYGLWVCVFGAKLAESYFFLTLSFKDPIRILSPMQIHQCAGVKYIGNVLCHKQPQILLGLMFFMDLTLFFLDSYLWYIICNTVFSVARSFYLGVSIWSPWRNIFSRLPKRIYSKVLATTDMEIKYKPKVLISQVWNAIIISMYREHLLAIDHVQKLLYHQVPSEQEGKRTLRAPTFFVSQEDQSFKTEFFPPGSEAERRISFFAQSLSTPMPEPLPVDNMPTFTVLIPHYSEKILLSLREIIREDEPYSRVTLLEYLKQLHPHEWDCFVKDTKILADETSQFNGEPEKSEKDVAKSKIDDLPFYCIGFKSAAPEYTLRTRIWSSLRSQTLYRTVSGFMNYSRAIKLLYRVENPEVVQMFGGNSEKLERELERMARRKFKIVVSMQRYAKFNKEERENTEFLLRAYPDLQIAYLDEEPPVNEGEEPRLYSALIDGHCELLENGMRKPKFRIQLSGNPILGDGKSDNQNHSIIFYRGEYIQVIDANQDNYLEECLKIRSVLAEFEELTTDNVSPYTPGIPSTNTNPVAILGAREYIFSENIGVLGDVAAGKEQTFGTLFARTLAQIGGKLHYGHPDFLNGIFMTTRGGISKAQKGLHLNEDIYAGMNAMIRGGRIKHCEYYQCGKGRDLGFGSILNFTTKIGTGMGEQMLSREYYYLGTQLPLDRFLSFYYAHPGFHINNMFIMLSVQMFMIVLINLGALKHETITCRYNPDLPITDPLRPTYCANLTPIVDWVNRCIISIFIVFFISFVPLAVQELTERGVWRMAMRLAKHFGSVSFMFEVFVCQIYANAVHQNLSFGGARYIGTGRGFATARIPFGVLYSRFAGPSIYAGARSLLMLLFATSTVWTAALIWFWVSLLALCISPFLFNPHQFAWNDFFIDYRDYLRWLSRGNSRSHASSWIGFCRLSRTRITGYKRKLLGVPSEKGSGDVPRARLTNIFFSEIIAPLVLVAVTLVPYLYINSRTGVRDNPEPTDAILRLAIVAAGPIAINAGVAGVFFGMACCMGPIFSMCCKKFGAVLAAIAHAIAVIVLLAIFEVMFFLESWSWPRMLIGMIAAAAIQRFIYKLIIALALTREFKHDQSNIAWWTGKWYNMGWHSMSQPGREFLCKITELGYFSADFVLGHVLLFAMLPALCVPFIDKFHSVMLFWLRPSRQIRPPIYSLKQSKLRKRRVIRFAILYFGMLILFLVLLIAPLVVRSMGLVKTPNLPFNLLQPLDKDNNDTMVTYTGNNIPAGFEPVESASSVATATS

1,3-beta-glucan synthase (Candida, UniProt O13428), sequence (O13428 whole entry): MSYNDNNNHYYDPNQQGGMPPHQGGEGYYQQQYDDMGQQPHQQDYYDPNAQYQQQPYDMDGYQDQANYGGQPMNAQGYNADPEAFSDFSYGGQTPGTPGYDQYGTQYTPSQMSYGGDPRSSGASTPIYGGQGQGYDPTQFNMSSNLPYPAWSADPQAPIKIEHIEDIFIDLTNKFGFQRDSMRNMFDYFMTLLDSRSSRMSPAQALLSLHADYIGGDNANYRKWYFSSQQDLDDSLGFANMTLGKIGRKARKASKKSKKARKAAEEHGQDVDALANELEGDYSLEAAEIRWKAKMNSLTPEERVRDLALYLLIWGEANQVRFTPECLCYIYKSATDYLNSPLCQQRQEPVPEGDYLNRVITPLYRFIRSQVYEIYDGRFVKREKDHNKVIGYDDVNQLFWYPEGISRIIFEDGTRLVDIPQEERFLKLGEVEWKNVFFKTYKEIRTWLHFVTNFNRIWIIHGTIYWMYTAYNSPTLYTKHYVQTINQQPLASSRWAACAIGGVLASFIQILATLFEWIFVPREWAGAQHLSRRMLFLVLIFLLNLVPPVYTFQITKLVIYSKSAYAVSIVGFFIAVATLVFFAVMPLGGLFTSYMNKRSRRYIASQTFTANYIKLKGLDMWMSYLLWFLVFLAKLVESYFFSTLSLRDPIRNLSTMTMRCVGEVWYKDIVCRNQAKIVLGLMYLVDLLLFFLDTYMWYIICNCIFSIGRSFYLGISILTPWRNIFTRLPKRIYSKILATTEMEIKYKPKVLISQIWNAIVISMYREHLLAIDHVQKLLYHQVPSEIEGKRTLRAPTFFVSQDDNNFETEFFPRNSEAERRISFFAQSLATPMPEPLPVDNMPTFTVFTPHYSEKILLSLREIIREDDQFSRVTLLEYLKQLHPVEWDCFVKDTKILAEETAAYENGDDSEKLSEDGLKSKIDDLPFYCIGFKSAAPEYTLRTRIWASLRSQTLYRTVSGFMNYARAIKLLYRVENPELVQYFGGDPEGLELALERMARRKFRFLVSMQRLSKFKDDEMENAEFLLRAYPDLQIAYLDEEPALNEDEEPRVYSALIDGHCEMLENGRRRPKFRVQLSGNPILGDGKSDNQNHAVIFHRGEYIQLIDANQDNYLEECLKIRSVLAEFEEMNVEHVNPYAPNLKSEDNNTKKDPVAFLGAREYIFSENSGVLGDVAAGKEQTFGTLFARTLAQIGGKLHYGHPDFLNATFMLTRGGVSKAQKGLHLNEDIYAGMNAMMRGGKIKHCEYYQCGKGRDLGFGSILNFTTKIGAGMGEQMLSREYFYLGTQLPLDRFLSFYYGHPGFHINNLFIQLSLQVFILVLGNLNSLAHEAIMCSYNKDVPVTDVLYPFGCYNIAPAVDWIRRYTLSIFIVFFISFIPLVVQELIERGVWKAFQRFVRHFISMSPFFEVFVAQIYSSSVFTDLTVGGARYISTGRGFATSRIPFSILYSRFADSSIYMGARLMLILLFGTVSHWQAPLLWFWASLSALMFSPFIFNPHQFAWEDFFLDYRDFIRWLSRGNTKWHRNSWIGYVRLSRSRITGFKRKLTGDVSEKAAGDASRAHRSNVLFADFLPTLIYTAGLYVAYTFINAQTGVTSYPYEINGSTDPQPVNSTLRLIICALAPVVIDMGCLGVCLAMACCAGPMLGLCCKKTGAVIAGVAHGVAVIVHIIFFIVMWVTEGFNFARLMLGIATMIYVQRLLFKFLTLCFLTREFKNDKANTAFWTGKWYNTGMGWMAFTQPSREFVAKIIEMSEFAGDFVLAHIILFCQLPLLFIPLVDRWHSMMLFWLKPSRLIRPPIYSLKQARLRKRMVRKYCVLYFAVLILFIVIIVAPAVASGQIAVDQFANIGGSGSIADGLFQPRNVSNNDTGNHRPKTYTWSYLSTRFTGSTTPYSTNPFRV

## N[C@H]1CCN(C(=O)CN(CC(=O)NCc2cccc(Cl)c2)c2ccc(Oc3ccccc3)cc2)C1
1,3-beta-glucan synthase [1]
  IC50: 8 µM
1,3-beta-glucan synthase [2]
  IC50: 5.6 µM
